Measurements reported in PubChem BioAssay (NCI).
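How tested: cells in 96-well plates exposed to compound for 48 hours at five concentrations. GI50 is the concentration that inhibits growth by half. TGI: concentration producing complete growth inhibition.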

Key:
Assay in all cases: NCI tumour cell line growth inhibition, 48 h
SW-620 colon = tested on: SW-620 colon
NCI-H23 lung = tested on: NCI-H23 lung
CCRF-CEM leukemia = tested on: CCRF-CEM leukemia
SNB-19 CNS = tested on: SNB-19 CNS
SK-MEL-2 melanoma = tested on: SK-MEL-2 melanoma
NCI-H226 lung = tested on: NCI-H226 lung
M14 melanoma = tested on: M14 melanoma
MOLT-4 leukemia = tested on: MOLT-4 leukemia
U251 CNS = tested on: U251 CNS
UO-31 renal = tested on: UO-31 renal
EKVX NSCLC = tested on: EKVX NSCLC
SF-539 CNS = tested on: SF-539 CNS
RXF 393 renal = tested on: RXF 393 renal
UACC-62 melanoma = tested on: UACC-62 melanoma
KM20L2 colon = tested on: KM20L2 colon
K-562 leukemia = tested on: K-562 leukemia
HOP-62 NSCLC = tested on: HOP-62 NSCLC
RPMI-8226 leukemia = tested on: RPMI-8226 leukemia
SN12C renal = tested on: SN12C renal
A498 renal = tested on: A498 renal
NCI-H460 lung = tested on: NCI-H460 lung
TK-10 renal = tested on: TK-10 renal
NCI-H522 lung = tested on: NCI-H522 lung
HCT-116 colon = tested on: HCT-116 colon
SF-268 CNS = tested on: SF-268 CNS
SK-OV-3 ovarian = tested on: SK-OV-3 ovarian
HL-60(TB) leukemia = tested on: HL-60(TB) leukemia
HT29 colon = tested on: HT29 colon
SF-295 CNS = tested on: SF-295 CNS
HCT-15 colon = tested on: HCT-15 colon
HCC-2998 colon = tested on: HCC-2998 colon
OVCAR-3 ovarian = tested on: OVCAR-3 ovarian
IGROV1 ovarian = tested on: IGROV1 ovarian
MALME-3M melanoma = tested on: MALME-3M melanoma
COLO 205 colon = tested on: COLO 205 colon
A549 NSCLC = tested on: A549 NSCLC
SK-MEL-5 melanoma = tested on: SK-MEL-5 melanoma
LOX IMVI melanoma = tested on: LOX IMVI melanoma
786-0 renal = tested on: 786-0 renal
ACHN renal = tested on: ACHN renal
OVCAR-5 ovarian = tested on: OVCAR-5 ovarian
KM12 colon = tested on: KM12 colon
SR leukemia = tested on: SR leukemia
SNB-75 CNS = tested on: SNB-75 CNS
OVCAR-8 ovarian = tested on: OVCAR-8 ovarian
UACC-257 melanoma = tested on: UACC-257 melanoma
HOP-92 NSCLC = tested on: HOP-92 NSCLC
SK-MEL-28 melanoma = tested on: SK-MEL-28 melanoma
HOP-18 NSCLC = tested on: HOP-18 NSCLC
DLD-1 colon = tested on: DLD-1 colon
M19-MEL melanoma = tested on: M19-MEL melanoma
LXFL 529 NSCLC = tested on: LXFL 529 NSCLC
SNB-78 CNS = tested on: SNB-78 CNS
CAKI-1 renal = tested on: CAKI-1 renal

**Q.** How did the TGI (SW-620 colon) turn out when `CC(=O)[O-].CC(=O)[O-].O=C(N/N=C/c1cc(Cl)cc(Cl)c1[OH2+])c1ccncc1.[Mn+2]` was run?
**A.** 8.09 µM

**Q.** And the TGI (NCI-H23 lung)?
**A.** 21.9 µM

**Q.** What about the TGI (CCRF-CEM leukemia) of the same compound?
**A.** 2.15 µM

**Q.** What about the TGI (SNB-19 CNS) of the same compound?
**A.** 36.1 µM

**Q.** And the GI50 (SK-MEL-2 melanoma)?
**A.** 3.85 µM

**Q.** And the TGI (SK-MEL-2 melanoma)?
**A.** 8.38 µM

**Q.** And the TGI (NCI-H226 lung)?
**A.** 12.1 µM

**Q.** What about the TGI (M14 melanoma) of the same compound?
**A.** 13.6 µM

**Q.** What about the TGI (MOLT-4 leukemia) of the same compound?
**A.** 0.84 µM

**Q.** And the TGI (U251 CNS)?
**A.** 24.3 µM

**Q.** What about the TGI (UO-31 renal) of the same compound?
**A.** 18.6 µM

**Q.** And the TGI (EKVX NSCLC)?
**A.** 7.76 µM

**Q.** And the TGI (SF-539 CNS)?
**A.** 13.4 µM

**Q.** What about the TGI (RXF 393 renal) of the same compound?
**A.** 20.7 µM

**Q.** And the TGI (UACC-62 melanoma)?
**A.** 5.54 µM

**Q.** And the TGI (KM20L2 colon)?
**A.** 16 µM

**Q.** What about the TGI (K-562 leukemia) of the same compound?
**A.** 14.8 µM

**Q.** What about the TGI (HOP-62 NSCLC) of the same compound?
**A.** 68 µM

**Q.** What about the TGI (RPMI-8226 leukemia) of the same compound?
**A.** 8.88 µM

**Q.** And the TGI (SN12C renal)?
**A.** 21.2 µM

**Q.** What about the TGI (A498 renal) of the same compound?
**A.** 41 µM

**Q.** What about the TGI (NCI-H460 lung) of the same compound?
**A.** 15.8 µM

**Q.** What about the TGI (TK-10 renal) of the same compound?
**A.** 27.3 µM

**Q.** What about the TGI (NCI-H522 lung) of the same compound?
**A.** 14.8 µM

**Q.** And the TGI (HCT-116 colon)?
**A.** 17.7 µM

**Q.** And the TGI (SF-268 CNS)?
**A.** 27.2 µM

**Q.** What about the TGI (SK-OV-3 ovarian) of the same compound?
**A.** 51.1 µM

**Q.** And the TGI (HL-60(TB) leukemia)?
**A.** 1.12 µM

**Q.** What about the TGI (HT29 colon) of the same compound?
**A.** 31.6 µM

**Q.** What about the TGI (SF-295 CNS) of the same compound?
**A.** 7.48 µM

**Q.** And the TGI (HCT-15 colon)?
**A.** 25.1 µM

**Q.** What about the TGI (HCC-2998 colon) of the same compound?
**A.** 17 µM

**Q.** And the TGI (OVCAR-3 ovarian)?
**A.** 0.956 µM

**Q.** And the TGI (IGROV1 ovarian)?
**A.** 10.7 µM

**Q.** What about the TGI (MALME-3M melanoma) of the same compound?
**A.** 18 µM

**Q.** And the TGI (COLO 205 colon)?
**A.** 10.9 µM

**Q.** What about the TGI (A549 NSCLC) of the same compound?
**A.** 79.7 µM

**Q.** What about the TGI (SK-MEL-5 melanoma) of the same compound?
**A.** 11 µM

**Q.** And the TGI (LOX IMVI melanoma)?
**A.** 15.2 µM

**Q.** What about the TGI (786-0 renal) of the same compound?
**A.** 15.6 µM

**Q.** What about the TGI (ACHN renal) of the same compound?
**A.** 13.8 µM

**Q.** And the TGI (OVCAR-5 ovarian)?
**A.** 8.49 µM

**Q.** What about the TGI (KM12 colon) of the same compound?
**A.** 23.8 µM

**Q.** And the TGI (SR leukemia)?
**A.** 4.4 µM

**Q.** What about the TGI (SNB-75 CNS) of the same compound?
**A.** 30.2 µM

**Q.** And the TGI (OVCAR-8 ovarian)?
**A.** 10.1 µM

**Q.** What about the TGI (UACC-257 melanoma) of the same compound?
**A.** 14.7 µM

**Q.** What about the GI50 (HOP-92 NSCLC) of the same compound?
**A.** 4.71 µM

**Q.** What about the TGI (HOP-92 NSCLC) of the same compound?
**A.** 9.91 µM

**Q.** What about the TGI (SK-MEL-28 melanoma) of the same compound?
**A.** 25 µM

**Q.** Which TGI (SW-620 colon) does the source give for `Cc1cc(=O)oc2c1cc1ccc3cccc4ccc2c1c34` here?
**A.** > 100 µM

**Q.** And the TGI (HOP-18 NSCLC)?
**A.** > 100 µM

**Q.** What about the TGI (NCI-H23 lung) of the same compound?
**A.** > 100 µM

**Q.** And the TGI (CCRF-CEM leukemia)?
**A.** > 100 µM

**Q.** And the TGI (SNB-19 CNS)?
**A.** > 100 µM

**Q.** What about the TGI (DLD-1 colon) of the same compound?
**A.** > 100 µM

**Q.** What about the TGI (SK-MEL-2 melanoma) of the same compound?
**A.** > 100 µM

**Q.** What about the TGI (NCI-H226 lung) of the same compound?
**A.** > 100 µM

**Q.** And the TGI (M14 melanoma)?
**A.** > 100 µM

**Q.** What about the TGI (MOLT-4 leukemia) of the same compound?
**A.** > 100 µM

**Q.** And the TGI (U251 CNS)?
**A.** > 100 µM

**Q.** And the TGI (UO-31 renal)?
**A.** > 100 µM

**Q.** And the TGI (EKVX NSCLC)?
**A.** > 100 µM

**Q.** What about the TGI (SF-539 CNS) of the same compound?
**A.** > 100 µM

**Q.** And the TGI (UACC-62 melanoma)?
**A.** > 100 µM

**Q.** And the TGI (KM20L2 colon)?
**A.** > 100 µM

**Q.** What about the TGI (K-562 leukemia) of the same compound?
**A.** > 100 µM

**Q.** And the TGI (RPMI-8226 leukemia)?
**A.** > 100 µM

**Q.** And the TGI (SN12C renal)?
**A.** > 100 µM

**Q.** And the TGI (A498 renal)?
**A.** > 100 µM

**Q.** And the TGI (NCI-H460 lung)?
**A.** > 100 µM

**Q.** And the TGI (TK-10 renal)?
**A.** > 100 µM

**Q.** What about the TGI (NCI-H522 lung) of the same compound?
**A.** > 100 µM

**Q.** What about the TGI (M19-MEL melanoma) of the same compound?
**A.** > 100 µM

**Q.** What about the TGI (SF-268 CNS) of the same compound?
**A.** > 100 µM

**Q.** What about the TGI (LXFL 529 NSCLC) of the same compound?
**A.** > 100 µM

**Q.** What about the TGI (SK-OV-3 ovarian) of the same compound?
**A.** > 100 µM

**Q.** And the TGI (HL-60(TB) leukemia)?
**A.** > 100 µM

**Q.** And the TGI (SNB-78 CNS)?
**A.** > 100 µM

**Q.** What about the TGI (HT29 colon) of the same compound?
**A.** > 100 µM

**Q.** What about the TGI (CAKI-1 renal) of the same compound?
**A.** > 100 µM

**Q.** What about the TGI (SF-295 CNS) of the same compound?
**A.** > 100 µM

**Q.** And the TGI (HCT-15 colon)?
**A.** > 100 µM

**Q.** And the TGI (OVCAR-3 ovarian)?
**A.** > 100 µM

**Q.** And the TGI (IGROV1 ovarian)?
**A.** > 100 µM

**Q.** And the TGI (MALME-3M melanoma)?
**A.** > 100 µM

**Q.** What about the TGI (COLO 205 colon) of the same compound?
**A.** > 100 µM

**Q.** What about the TGI (SK-MEL-5 melanoma) of the same compound?
**A.** > 100 µM

**Q.** What about the TGI (LOX IMVI melanoma) of the same compound?
**A.** > 100 µM

**Q.** And the TGI (ACHN renal)?
**A.** > 100 µM

**Q.** What about the TGI (SNB-75 CNS) of the same compound?
**A.** 98.4 µM

**Q.** What about the TGI (OVCAR-8 ovarian) of the same compound?
**A.** > 100 µM

**Q.** And the TGI (HOP-92 NSCLC)?
**A.** > 100 µM

**Q.** And the TGI (SK-MEL-28 melanoma)?
**A.** > 100 µM
